Data on six molecules can be found in US9238056B2, “Cyclic peptide and conjugate thereof for binding to keratinocytes” (LEO PHARMA A/S, priority 2011, dated 2016).

Data set [1] deals with A431 cells. Put plainly: Binding of DiD-labeled peptide-conjugated liposomes to A431 cells at 4° C. (flow cytometry). Format: cell-based, human. The protocol:
(§1) Human epidermal carcinoma cells A431 were subcultured in Dulbecco's modified Eagle's medium (DMEM) containing 3.7 g/l sodium bicarbonate and 4.5 g/l glucose, supplemented with antimicrobial agents, 2 mM L-glutamine and 7.5% (v/v) fetal bovine serum, at 37° C. in a humidified atmosphere containing 5% CO2. Nearly confluent mono-layers of A431 cells were washed with PBS and cells were detached using 1 mM tris-EDTA in PBS. The cells were subsequently suspended in cold PBS supplemented with 1.26 mM CaCl2 and 0.81 mM MgSO4 at 4° C. The cells were counted after centrifugation and 10^5 cells in 100 μl media were incubated with 100 μl liposomes diluted in PBS supplemented with 1.26 mM CaCl and 0.81 mM MgSO4, different concentrations of DiD-labeled liposomes (10-200 nmol total lipid), RKK12-conjugated liposomes (RKK12-liposomes) or AKK12-coupled liposomes (AKK12-liposomes) for 1 h at 4° C.
(§2) In the cellular internalization of liposomes experiment, similar different concentrations of DiD-labeled liposomes (10-200 nmol total lipid) RKK12-liposomes were incubated for 1 hour at 37° C. […] At the end of the incubation period, cells were washed three times in the 5% BSA supplemented PBS-buffer at 4° C., and resuspended in 200 μl PBS supplied with 5% BSA after which they were analyzed on a FACScalibur flow cytometer (Becton-Dickinson). […]

Data set [2] deals with A431 cells. In words: Cellular internalization of DiD-labeled peptide-conjugated liposomes at 37° C. (flow cytometry). The format is cell-based, human. The conditions noted are these: 1 hour at 37° C., FIG. 4. The protocol:
as §1, §2

In data set [3] the test system is HaCat cells. The conditions noted are these: cited from earlier work.
For data set [4], the target named is T1, integrin α2β1 receptor (Homo sapiens, UniProt P17301).
T1 sequence (P17301 153-368 limits assumed): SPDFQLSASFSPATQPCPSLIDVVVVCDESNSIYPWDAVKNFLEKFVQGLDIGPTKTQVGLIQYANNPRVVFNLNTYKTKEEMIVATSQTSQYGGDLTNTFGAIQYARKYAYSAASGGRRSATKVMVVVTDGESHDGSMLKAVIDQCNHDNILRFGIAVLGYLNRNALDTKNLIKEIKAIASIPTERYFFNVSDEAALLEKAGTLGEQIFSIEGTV
The conditions noted are these: cyclic peptide: in the presence of 2 mM MgCl2; cited from earlier work.

The test system of data set [5] is Adult human epidermal keratinocytes (HEKa). Put plainly: Cathelicidin (CAMP) expression by qPCR in keratinocytes incubated with calcipotriol-loaded liposomes. Format: cell-based. The conditions noted are these: 10^−7 M calcipotriol, 1 h at 37° C. then 24 h, versus placebo RKK12-conjugated liposomes, FIG. 6. How it is done:
Adult human epidermal keratinocytes (HEKa) were obtained from Cascade Biologics (Portland, Oreg., USA) and cultured in EpiLife Medium (Cascade Biologics) containing human keratinocyte growth supplement and gentamicin/Amphotericin B (Cascade Biologics) at 37° C. in a humidified atmosphere with 5% CO2. For the cell interaction assay, 2×10^5 exponentially growing keratinocytes were seeded one day prior to treatment. On the following day (at 80% confluency), the medium was renewed, and the cell culture media was supplied with 15 μl of liposome suspension for a final concentration of 10^−7 M calcipotriol in the well, 15 μl placebo liposomal suspension, or calcipotriol in 0.1% DMSO solution for a final concentration of 10^−7 M and incubated 1 h at 37° C. The liposomes were conjugated with either the RKK12-peptide or the AKK12-peptide. After 1 h, the cells were washed three times with PBS supplemented with 1% BSA, and 1.5 ml media was added followed by incubation for 24 h at 37° C. Subsequently, the medium was removed, and mRNA was extracted using the RNeasy kit from Quiagen (Hilden, Germany). […] The relative change in the expression of CAMP was quantified using the comparative CT method (2^−ΔΔCt)(K. J. Livak and T. D. Schmittgen, Methods 25, 2001, pp. 402-408).

Data set [6] deals with T2, integrin α2β1 receptor on the surface of A431 human epidermal carcinoma cells (human, UniProt P17301 30-1181; P05556 21-798).
T2 construct: whole, on cells; Endogenous receptor on A431 cells; also called human integrin α2β1 receptor
Put plainly: flow cytometry, DiD-labeled peptide-conjugated liposomes on A431 cells at 4° C.

Bridge positions count the residues as written; N and C are the ends. Ends that are not written are not given here. * marks the point of attachment. Acetylthioacetyl = CC(=O)SCC(=O)*

T2 sequence (P17301 30-1181, chain 1 of 2): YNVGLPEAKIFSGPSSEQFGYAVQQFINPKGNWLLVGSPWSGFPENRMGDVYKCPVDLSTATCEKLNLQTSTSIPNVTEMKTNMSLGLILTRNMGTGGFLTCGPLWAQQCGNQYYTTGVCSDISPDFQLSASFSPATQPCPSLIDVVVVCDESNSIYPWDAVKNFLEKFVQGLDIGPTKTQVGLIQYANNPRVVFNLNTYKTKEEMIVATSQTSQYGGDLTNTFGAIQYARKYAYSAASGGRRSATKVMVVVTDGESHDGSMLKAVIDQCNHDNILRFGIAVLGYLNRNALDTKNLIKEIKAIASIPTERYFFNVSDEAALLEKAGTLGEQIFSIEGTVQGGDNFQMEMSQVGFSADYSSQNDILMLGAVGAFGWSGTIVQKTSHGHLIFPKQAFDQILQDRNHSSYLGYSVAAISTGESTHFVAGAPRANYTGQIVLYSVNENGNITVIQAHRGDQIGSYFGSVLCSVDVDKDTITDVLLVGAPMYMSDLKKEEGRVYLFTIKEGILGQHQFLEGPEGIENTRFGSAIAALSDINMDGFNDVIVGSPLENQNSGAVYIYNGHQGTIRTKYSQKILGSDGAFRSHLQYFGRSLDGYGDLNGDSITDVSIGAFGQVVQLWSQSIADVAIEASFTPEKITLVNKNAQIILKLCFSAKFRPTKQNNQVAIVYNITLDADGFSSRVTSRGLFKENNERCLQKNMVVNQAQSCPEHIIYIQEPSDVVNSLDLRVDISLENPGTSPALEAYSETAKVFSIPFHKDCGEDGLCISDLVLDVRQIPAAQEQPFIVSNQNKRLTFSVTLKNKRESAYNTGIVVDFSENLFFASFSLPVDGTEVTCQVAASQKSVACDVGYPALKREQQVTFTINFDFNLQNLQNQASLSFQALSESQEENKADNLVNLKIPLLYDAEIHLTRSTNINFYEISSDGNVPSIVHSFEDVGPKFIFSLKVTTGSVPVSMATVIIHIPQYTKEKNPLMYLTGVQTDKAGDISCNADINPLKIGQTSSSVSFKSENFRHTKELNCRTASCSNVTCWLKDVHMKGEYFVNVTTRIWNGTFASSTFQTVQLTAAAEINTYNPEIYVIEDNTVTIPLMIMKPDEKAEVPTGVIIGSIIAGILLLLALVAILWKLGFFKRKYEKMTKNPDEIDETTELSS
T2 sequence (P05556 21-798, chain 2 of 2): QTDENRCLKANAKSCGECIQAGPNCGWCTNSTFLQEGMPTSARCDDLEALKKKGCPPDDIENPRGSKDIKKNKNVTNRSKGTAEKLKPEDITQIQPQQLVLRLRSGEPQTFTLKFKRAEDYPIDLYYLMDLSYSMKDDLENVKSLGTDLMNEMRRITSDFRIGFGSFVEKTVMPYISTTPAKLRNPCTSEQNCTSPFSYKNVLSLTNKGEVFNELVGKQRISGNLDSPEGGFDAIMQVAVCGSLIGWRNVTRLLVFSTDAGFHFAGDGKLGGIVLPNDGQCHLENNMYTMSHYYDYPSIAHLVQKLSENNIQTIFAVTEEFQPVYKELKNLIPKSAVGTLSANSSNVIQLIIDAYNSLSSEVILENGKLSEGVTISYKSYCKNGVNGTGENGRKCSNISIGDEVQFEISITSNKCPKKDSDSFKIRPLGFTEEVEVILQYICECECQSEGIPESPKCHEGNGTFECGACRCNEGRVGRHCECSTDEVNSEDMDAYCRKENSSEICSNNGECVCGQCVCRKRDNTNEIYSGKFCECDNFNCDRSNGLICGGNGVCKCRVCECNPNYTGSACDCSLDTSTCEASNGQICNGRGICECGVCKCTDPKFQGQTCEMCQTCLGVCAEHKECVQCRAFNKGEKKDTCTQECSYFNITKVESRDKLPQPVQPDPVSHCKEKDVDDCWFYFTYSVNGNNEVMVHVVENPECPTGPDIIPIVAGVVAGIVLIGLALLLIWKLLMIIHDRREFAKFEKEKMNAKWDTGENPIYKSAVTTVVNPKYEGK

Consider “RKK12-liposomes: DiD-labeled liposomes (DSPC, PEG2000-DSPE, Mal-PEG2000-DSPE, cholesterol) conjugated with RKK12 peptide (cyclo(KHDNAQSK(Acetylthioacetyl)STRK); also: conjugated to DiD-labeled liposomes)”, for which, in data set [1] (4° C., PBS not supplied with CaCl2 or MgSO4, FIG. 5), the “association of liposomes at low Mg2+ concentrations, versus AKK12-conjugated liposomes” value was “only slightly higher”. Also, in data set [1] (1 h at 4° C., PBS with 1.26 mM CaCl2 and 0.81 mM MgSO4, 10-200 nmol total lipid, FIG. 3), the “fluorescence of cells (association of liposomes)” value is listed as “significantly more fluorescent”. Also, in data set [2], the “internalization (cellular uptake) of liposomes” value is “highest”.
As for `C=C1/C(=C\C=C2/CCC[C@]3(C)[C@@H]([C@H](C)/C=C/[C@@H](O)C4CC4)CC[C@@H]23)C[C@@H](O)C[C@@H]1O` [calcipotriol], the levels of cathelicidin result in data set [3] is reported as “Increased levels”.
Turning to “C^241TRKKHDNAQ^249C: nine amino acid long cyclic peptide with RKK motif derived from jararhagin (Ivaska et al.) (CTRKKHDNAQC; disulfide 1-11)”, the “inhibition of collagen I interaction with the integrin α2β1 receptor” value in data set [4] was “inhibit the interaction”.
Regarding “AKK12-conjugated liposomes: calcipotriol-loaded liposomes conjugated with the control peptide AKK12 (cyclo(KHDNRQSK(Acetylthioacetyl)STAK); not fully specified)”, in data set [5], the “expression of cathelicidin (CAMP) normalized to GAPDH” value is listed as “no significant difference between the formulations”.

B1: AKK12 head-to-tail cyclized control peptide H-KHDNRQS-(SATA)KSTAK-OH, conjugated to DiD-labeled liposomes (peptide)
peptide: cyclo(KHDNRQSKSTAK)
modifications: not fully specified (residue 8)
notes: Control peptide with similar charge as RKK12 but without the RKK motif (Arg and Ala exchanged); tested only as a liposome conjugate; also called AKK12-peptide; AKK12-liposomes
Regarding B1, the binding result in data set [6] is on record as “binds”.

B2: RKK12 head-to-tail cyclized targeting peptide H-KHDNAQS-(SATA)KSTRK-OH, conjugated to DiD-labeled liposomes (peptide)
peptide: cyclo(KHDNAQSKSTRK)
modifications: not fully specified (residue 8)
notes: Synthetic cyclic peptide; tested only as a conjugate on the surface of DiD-labeled PEGylated liposomes, so many copies per particle; also called RKK12-peptide; RKK-12 peptide
On to B2, for which, in data set [6], the binding result is given as “binds”.
